Earlier results on three compounds are cited in PMC10872542 (Structure (London, England : 1993), 2023).

The structures appear in SMILES notation.

This data set deals with TRPV5. Conditions: read-out: IC50 of TRPV5 inhibition.
In general, IC50 refers to the concentration that gives 50% inhibition. With `CC(OC(=O)CC1Sc2ccccc2NC1=O)c1nc2scc(-c3ccccc3)c2c(=O)[nH]1` (stereo not drawn) [ZINC9155420], the concentration for half-maximal inhibition (IC50) is approximately 3 µM.
Turning to `O=C(CCN1C(=O)COc2ccccc21)OCc1nc2scc(-c3ccccc3)c2c(=O)[nH]1` [ZINC17988990], the IC50 was approximately 0.1 µM.
In the case of `Cl.Cl.Cl.Cl.Cl.Cl.N.N.N.N.N.N.N.N.N.N.N.N.N.N.[O-2].[O-2].[Ru+3].[Ru+3].[Ru+4]` [ruthenium red], the IC50 is approximately 0.1 µM.
